In paper PMC6331977, “Bioassay-Guided Isolation and Identification of Xanthine Oxidase Inhibitory Constituents from the Leaves of Perilla frutescens” (Molecules, 2015):

Assays:
xanthine oxidase (XO) [1] = molecular target: T1, xanthine oxidase (XO) (Bos taurus, UniProt P80457); test: Assay of XO inhibitory modes of action (enzyme kinetics, Lineweaver-Burk plots); conditions: for Mode of Inhibition: Lineweaver-Burk plots
xanthine oxidase (XO) [2] = molecular target: T1, xanthine oxidase (XO); test: Assay of XO activity (uric acid formation determined by HPLC); format: biochemical; set-up: purchased Sigma-Aldrich Chemicals (St. Louis, MO, USA); conditions: for IC50: xanthine as substrate, 25 °C, pH 7.5, uric acid by HPLC; for XO inhibitory activity (in words): in vitro

T1 sequence (P80457 whole entry): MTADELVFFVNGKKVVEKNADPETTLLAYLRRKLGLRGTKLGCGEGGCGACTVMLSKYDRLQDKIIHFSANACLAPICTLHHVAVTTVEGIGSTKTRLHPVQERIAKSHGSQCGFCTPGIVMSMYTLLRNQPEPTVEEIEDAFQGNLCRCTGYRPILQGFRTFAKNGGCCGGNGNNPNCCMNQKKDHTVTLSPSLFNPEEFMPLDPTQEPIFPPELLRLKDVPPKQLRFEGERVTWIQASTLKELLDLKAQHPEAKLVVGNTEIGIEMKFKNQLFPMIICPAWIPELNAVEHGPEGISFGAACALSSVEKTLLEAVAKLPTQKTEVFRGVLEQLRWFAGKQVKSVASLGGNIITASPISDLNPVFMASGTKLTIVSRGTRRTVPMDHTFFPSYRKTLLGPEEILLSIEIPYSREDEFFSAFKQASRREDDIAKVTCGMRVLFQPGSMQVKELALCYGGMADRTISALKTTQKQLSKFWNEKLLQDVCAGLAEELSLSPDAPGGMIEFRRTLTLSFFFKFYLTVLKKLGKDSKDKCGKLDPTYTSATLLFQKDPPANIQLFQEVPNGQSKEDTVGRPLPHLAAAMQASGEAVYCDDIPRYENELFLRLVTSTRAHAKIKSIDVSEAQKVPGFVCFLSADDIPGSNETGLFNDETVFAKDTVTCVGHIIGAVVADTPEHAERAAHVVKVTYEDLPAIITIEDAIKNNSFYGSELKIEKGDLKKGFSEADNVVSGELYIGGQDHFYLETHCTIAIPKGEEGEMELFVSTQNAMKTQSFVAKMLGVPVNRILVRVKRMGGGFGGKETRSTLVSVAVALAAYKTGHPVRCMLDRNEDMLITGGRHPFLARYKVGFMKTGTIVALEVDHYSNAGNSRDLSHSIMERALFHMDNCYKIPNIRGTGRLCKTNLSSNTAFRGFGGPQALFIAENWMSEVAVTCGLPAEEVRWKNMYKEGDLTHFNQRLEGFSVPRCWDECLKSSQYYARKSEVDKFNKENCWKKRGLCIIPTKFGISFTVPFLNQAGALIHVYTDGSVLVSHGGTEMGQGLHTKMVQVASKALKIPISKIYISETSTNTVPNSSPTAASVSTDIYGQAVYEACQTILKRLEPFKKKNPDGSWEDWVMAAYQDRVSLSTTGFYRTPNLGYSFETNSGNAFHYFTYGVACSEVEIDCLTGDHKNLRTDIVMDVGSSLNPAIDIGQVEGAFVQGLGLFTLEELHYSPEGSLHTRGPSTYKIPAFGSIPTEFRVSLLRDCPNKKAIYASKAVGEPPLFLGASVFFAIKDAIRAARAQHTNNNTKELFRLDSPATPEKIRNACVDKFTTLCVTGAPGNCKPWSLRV

Compound | Ki (xanthine oxidase (XO) [1]) [µM] | IC50 (xanthine oxidase (XO) [2]) [µM] | Mode of Inhibition (xanthine oxidase (XO) [1]) | XO inhibitory activity (in words) (xanthine oxidase (XO) [2]) | Mode of Inhibition (xanthine oxidase (XO) [1]; listed as allopurinol) | Mode of Inhibition (xanthine oxidase (XO) [1]; listed as apigenin)
O=C(O)/C=C/c1ccc(O)c(O)c1 [Caffeic acid, caffeic acid] | 9.22 | 121 |  |  |  | 
COC(=O)[C@@H](Cc1ccc(O)c(O)c1)OC(=O)/C=C/c1ccc(O)c(O)c1 [Methyl rosmarinate, methyl rosmarinate] | 2.85 | 26.6 | Competitive | could significantly inhibit the production of uric acid |  | 
Oc1ncnc2[nH]ncc12 [Allopurinol, reference compound] |  |  | Competitive |  | competitive inhibitions | 
O=C(/C=C/c1ccc(O)c(O)c1)O[C@H](Cc1ccc(O)c(O)c1)C(=O)O [Rosmarinic acid, rosmarinic acid] | 26.2 | 91.7 | Competitive | weak XO inhibitory activities |  | 
C=COC(=O)/C=C/c1ccc(O)c(O)c1 [Vinyl caffeate, vinyl caffeate] | 5.05 | 31.3 | Competitive | could significantly inhibit the production of uric acid |  | 
O=c1cc(-c2ccc(O)cc2)oc2cc(O)cc(O)c12 [Apigenin, apigenin] | 0.11 | 0.44 | Mixed | could significantly inhibit the production of uric acid |  | mixed inhibition mode
